Reference: patent publication US20080045504A1, “Benzonitrile Derivatives to Treat Musculoskeletal Frailty” (PFIZER PRODUCTS INC., priority 2004, published 2008)
Marks after values point to notes of the source that are not given here.

Test system: aged ovariectomized (OVX) female rat
Assay: Effect on body weight, body composition and bone density in the aged ovariectomized female rat
Type: in vivo, Sprague-Dawley rat
Conditions: OVX rats
Method: Effect of Selective Androgen Receptor Modulator on Body Weight. Body Composition and Bone Density in the Aged Intact and Ovariectomized Female Rat The purpose of this study is to test the effects of test compound in aged intact or ovariectomized (OVX) female rat model.
Sprague-Dawley female rats were sham-operated or OVX at 18 months of age, while a group of rats was necropsied at day 0 to serve as baseline controls. One day post-surgery, the rats were treated with either vehicle or test compound. The vehicle or test compound was administered twice a week (Tuesday and Friday) by subcutaneous injection (s.c.), with the test compound being administered at an average dose of 10 milligrams per kilogram of body weight per day (10 mg/kg/day).
All rats were given s.c. injection of 10 mg/kg of calcein (Sigma, St. Louis, Mo.) for fluorescent bone label 2 and 12 days before necropsy. On the day of necropsy, all rats under ketamine/xylazine anesthesia were weighed and underwent dual-energy X-ray absorptiometry (DXA, QDR-4500/W, Hologic Inc., Waltham, Mass.) equipped with Rat Whole Body Scan software for lean and fat body mass determination. The rats were necropsied, then autopsied and blood was obtained by cardiac puncture. The distal femoral metaphysis and femoral shafts from each rat were analyzed by peripheral quantitative computerized tomography (pQCT), and volumetric total, trabecular and cortical bone mineral content and density were determined.
Peripheral Quantitative Computerized Tomography (pQCT) Analysis: Excised femurs were scanned by a pQCT X-ray machine (Stratec XCT Research M, Norland Medical Systems, Fort Atkinson, Wis.) with software version 5.40. A 1 millimeter (mm) thick cross section of the femur metaphysis was taken at 5.0 mm ([…], a primary cancellous bone site) and 13 mm (femoral shafts, a cortical bone site) proximal from the distal end with a voxel size of 0.10 mm. Cortical bone was defined and analyzed using contour mode 2 and cortical mode 4. An outer threshold setting of 340 mg/cm^3 was used to distinguish the cortical shell from soft tissue and an inner threshold of 529 mg/cm^3 to distinguish cortical bone along the endocortical surface. Trabecular bone was determined using peel mode 4 with a threshold of 655 mg/cm^3 to distinguish (sub)cortical from cancellous bone. An additional concentric peel of 1% of the defined cancellous bone was used to ensure that (sub)cortical bone was eliminated from the analysis. Volumetric content, density, and area were determined for both trabecular and cortical bone (Jamsa T. et al., Bone 23:155-161, 1998; Ke, H. Z. et al., Journal of Bone and Mineral Research, 16:765-773, 2001). Using the above setting, it was determined that the ex vivo precision of volumetric content, density and area of total bone, trabecular, and cortical regions ranged from 0.99% to 3.49% with repositioning.
The preceding protocol was carried out using the compound of Example 1 as the test compound. The vehicle employed in experimental groups II-IV was 100% sesame oil. The rats in groups II-IV were dosed s.c. twice a week (on Tuesday and Friday) with 0.3 ml and 0.4 ml. This dosing provided an average daily dose of 10 mg/kg/day of the compound of Example 1 for experimental group IV.
The values provided in Table 3 are the mean values±the standard error measurement. In Table 3 and the experimental protocol the following abbreviations or symbols had the following definitions. DFM: distal femoral metaphysis; FS: femoral shafts; g: grams; mg/cm^3: milligrams per cubic centimeter; mg/mm: milligrams per millimeter; a: p<0.05 vs. Baseline; b: p<0.05 vs. Sham; c: p<0.05 vs. OVX; mg/kg/day: milligrams per kilogram of body weight per day; and ml: milliliter.

[1] = 10 mg/kg/day s.c. twice a week, DXA, mean ± SEM
[2] = 10 mg/kg/day s.c., distal femoral metaphysis, pQCT, mean ± SEM
[3] = 10 mg/kg/day s.c., femoral shafts, pQCT, mean ± SEM
[4] = 10 mg/kg/day, compared to OVX rats administered vehicle

CC[C@H]1CCCCN1c1ccc(C#N)c(C(F)(F)F)c1 [Example 1, 4-(2-(S)-Ethyl-piperidin-1-yl)-2-trifluoromethyl-benzonitrile]
Body Weight (10 mg/kg/day s.c. twice a week in sesame oil, mean ± SEM): 459 ± 10.7^b,c g | Fat Body Mass [1]: 121.7 ± 7.9^c g | lean body mass [1]: 319.0 ± 7.7^c g | Total Density of DFM [2]: 602.2 ± 12.3^b mg/cm^3 | Trabecular Density of DFM [2]: 310.4 ± 0.16 mg/mL | Cortical Content of FS [3]: 11.8 ± 0.15^c mg/mm | Total Content of FS [3]: 11.9 ± 0.16^c mg/mm | effect on body weight [4]: negligible effect | effect on fat body mass [4]: significantly decreased | effect on lean body mass [4]: significantly increased
